PMC10003747, “A Novel Homodimer Peptide–Drug Conjugate Improves the Efficacy of HER2-Positive Breast Cancer Therapy” (International Journal of Molecular Sciences, 2023)

Tests used:
[1] = Stability of the PDC in human serum/plasma by HPLC; type: in vitro ADME; settings: human serum (methods: human plasma), 37 °C
Source text: HP (calcd Mw: 3183.7) was successfully synthesized by using solid-phase peptide synthesis (SPPS), and the peptides were cleaved and purified by HPLC (Figure S2) afterward and verified by using electrospray ionization mass spectrometry examinations (Figure 2a). […] The mass charge ratio (m/z) obtained by the experiment is consistent with the theoretical m/z. […] Polyethylene glycol (PEG) has been widely used to modify small molecules to slow renal clearance and to increase the half-life. It is essential that the PDC be maintained in a steady circulation to prevent pre-release of cytotoxic payloads, resulting in systemic toxicity. […] To assess plasma stability, the PDC was incubated with human serum at 37 °C from 0 to 48 h, and aliquots were taken at different time points and analyzed by using HPLC. […]
To quantify the amount of DOX released from the PDC, 1 mg of the substance was dissolved in 2 mL of ultra-pure water and placed into a dialysis bag (MWCO 1000 Da). […] The samples were analyzed for released DOX concentration using a fluorescence spectrophotometer at 589 nm and the DOX concentration was calculated based on a standard curve. […] After centrifugation at 13,000× g for 10 min, the supernatant was collected and the intact percentage of the PDC was detected by HPLC [19].

[2] = In vitro DOX release from the PDC (dialysis in PBS); type: physicochemical; settings: fluorescence at 589 nm
Source text: (§1) Based on the specific acidic tumor microenvironment (pH5.4–7.0), an acid-responsive linker was designed to undergo acid hydrolysis after cellular uptake, releasing the drug into endosomes or lysosomes to achieve site-specific delivery. It is theoretically possible that a HPD with an acid-sensitive hydrazone bond can display a regulated release behavior when the external pH value is altered. As observed from the drug release profile in Figure 3a, the PDC remains structurally stable in PBS at a pH of 7.4, as only about 35% of DOX is released within 24 h. In contrast, when the pH of PBS is reduced to 5.8, there is an explosive release of DOX in acidic media due to the pH-sensitive hydrolysis of the […] bond between DOX and the EMCH linker. […] Figure 3b illustrates that the cytotoxicity of the PDC and free DOX on SKBR-3 cells augmented with prolonged incubation time. When the equivalent concentration was 1 μM, the viability of SKBR-3 cells in the PDC group was 26.3%. […] To determine if our novel conjugate could enhance the effect of DOX through PEGylation and HER2-receptor-mediated internalization, we tested the cytotoxic effect of the PDC on MCF-7 and SKBR-3 breast cancer cells.
To quantify the amount of DOX released from the PDC, 1 mg of the substance was dissolved in 2 mL of ultra-pure water and placed into a dialysis bag (MWCO 1000 Da). This bag was then transferred to a tube containing 10 mL of PBS solution with varying pH values (7.4 and 5.8). The tube was stirred at 37 °C in the dark and samples of the PBS solution were collected at different intervals. Subsequently, a new 10 mL of PBS was added to the tube after each sample. The samples were analyzed for released DOX concentration using a fluorescence spectrophotometer at 589 nm and the DOX concentration was calculated based on a standard curve. The PDC was incubated with human plasma (final peptide concentration of 50 μM) for 0, 2, 4, 8, 12, 24, and 48 h in order to assess the stability of the conjugate. Then, […] of the solution was mixed with […] of methanol to terminate enzymatic hydrolyses. After centrifugation at 13,000× g for 10 min, the supernatant was collected and the intact percentage of the PDC was detected by HPLC [19].

SKBR-3 cells [3] = experiment: Cytotoxicity assay (CCK8 kit); type: cell-based, human; settings: for IC50: 48 h incubation, 0 to 1 μM, CCK8, from dose response log curves
Source text: as §1
Cultures of SKBR-3 and MCF-7 cells were established in DMEM medium supplemented with 10% fetal bovine serum, 100 U/mL penicillin, and 100 μg/mL streptomycin at 37 °C and 5% CO2. Approximately 1 × 10^5 cells/mL were seeded into culture dishes and incubated overnight. Subsequently, 0.5 mg/mL PDC was added and incubated for 2–8 h in conjunction with an equal amount of free DOX as a control. After washing three times with PBS, Hoechst 33342 and LysoTracker Green DND-26 were added to stain the nucleus and lysosome for 15 min, followed by three additional washes with PBS. Finally, confocal fluorescence images were obtained using a Zeiss 710 system. SKBR-3 cells were seeded in a 96-well culture plate at a density of 5000 cells per well and incubated for 24 h. Afterwards, cytotoxicity investigations were conducted by incubating the cells with the PDC and free DOX (in concentrations from 0 to 1 μM) for 48 h. Then, the CCK8 kit was used to detect cell survival.

SKBR-3 cells [4] = experiment: Cellular uptake and lysosome colocalization by CLSM; type: cell-based, human
Experimental: To assess the uptake efficiency of the PDC in tumor cells, human breast cancer cell lines SKBR-3 (high expression of HER2) were used as positive cells, and the MCF-7 cell line was used as a negative control. […] Along with the incubation time, DOX escaped from the lysosomes, and brighter red fluorescence was detected in the nuclei after 8 h of incubation (Figure 4a). It has been observed that peptide conjugates in the acidic environment of endosomes/lysosomes undergo hydrolysis at the acid-response hydrazone linker, thereby releasing DOX into cells, which is in line with prior reports. […] The lysosomal escape ability was evaluated by the localization of the PDC and lysosomes in SKBR-3 cells (Figure 4c), evidenced by the separation of red (DOX) and green (LysoTracker) fluorescence.
Cultures of SKBR-3 and MCF-7 cells were established in DMEM medium supplemented with 10% fetal bovine serum, 100 U/mL penicillin, and 100 μg/mL streptomycin at 37 °C and 5% CO2. Approximately 1 × 10^5 cells/mL were seeded into culture dishes and incubated overnight. Subsequently, 0.5 mg/mL PDC was added and incubated for 2–8 h in conjunction with an equal amount of free DOX as a control. […] Finally, confocal fluorescence images were obtained using a Zeiss 710 system. […]

[5] = test system: SKBR-3 xenografted (BALB/c nude) mice; experiment: In vivo anti-tumor study; settings: SKBR-3 xenograft, 5 mg/kg equivalent DOX, tail vein, five times every two days, n = 4, day 14
Experimental: (§2) In vivo anti-tumor studies were evaluated by using SKBR-3 xenografted (BALB/c nude) mice treated with the PDC, free DOX, or saline. […] Additionally, histological examination of the tumors was performed. […] A TUNEL assay indicated a greater number of apoptotic cells after treatments with the PDC group compared to the free DOX group and reduced the offtarget effects (Figure 5d).
In this study, a total of 12 female BALB/c mice (22–24 g) were used, and all animal experiments were conducted in compliance with the ethical guidelines approved by the ethics committee of Fujian Medical University. Approximately 2 × 10^6 SKBR-3 cells were injected subcutaneously in the right hind limb of the nude mice. Upon the tumor reaching a volume of around 100 mm^3, the mice were randomly allocated into three groups (n = 4) and administered through the tail vein with PBS, free DOX solution, and PDC solution (5 mg/kg equivalent DOX), respectively, five times every two days. Saline was used as a negative control. After each administration, the size and weight of the tumor were assessed. Subsequently, the mice were euthanized, and their tumor tissues and other major organs were dissected and preserved with 4% formaldehyde. […]

BALB/c nude mice = experiment: In vivo safety: body weight and H&E staining of major organs; settings: 5 mg/kg equivalent DOX i.v., five times every two days; for body weight change versus PBS group: n = 4; for H&E histology of major organs: compared with PBS group
Experimental: as §2
Good biocompatibility and the acceptable biosafety of a drug are essential for its biological application. […] The PDC had higher in vivo anti-tumor efficacy than DOX without apparent toxicities.
In this study, a total of 12 female BALB/c mice (22–24 g) were used, and all animal experiments were conducted in compliance with the ethical guidelines approved by the ethics committee of Fujian Medical University. Approximately 2 × 10^6 SKBR-3 cells were injected subcutaneously in the right hind limb of the nude mice. Upon the tumor reaching a volume of around 100 mm^3, the mice were randomly allocated into three groups (n = 4) and administered through the tail vein with PBS, free DOX solution, and PDC solution (5 mg/kg equivalent DOX), respectively, five times every two days. Saline was used as a negative control. After each administration, the size and weight of the tumor were assessed. Subsequently, the mice were euthanized, and their tumor tissues and other major organs were dissected and preserved with 4% formaldehyde. Paraffin sections were then produced, and the fixed paraffin-embedded tissues were sliced into 5 μm sections for hematoxylin and eosin (H&E) and TUNEL (terminal deoxynucleotidyl transferase dUTP nick-end labeling) analyses.

SMILES	half-life at 50 μM ([1]; 50 μM final peptide concentration, 0-48 h, methanol quench, intact PDC by HPLC, read-out: half-life of the conjugate (converted)) [min]	remaining at 48 h, 50 μM ([1]; 50 μM, 48 h incubation, HPLC, read-out: intact conjugate remaining at 48 h) [%]	DOX released within 8 h, pH 5.8 ([2]; PBS pH 5.8, 37 °C, dialysis MWCO 1000 Da, 8 h) [%]	DOX released within 24 h, pH 5.8 ([2]; PBS pH 5.8, 37 °C, dialysis MWCO 1000 Da, 24 h) [%]	DOX released, pH 5.8, start of the rise ([2]; PBS pH 5.8, 37 °C, dialysis MWCO 1000 Da, early value, time not given)	DOX released within 24 h, pH 7.4 ([2]; PBS pH 7.4, 37 °C, dark, dialysis bag MWCO 1000 Da, 1 mg in 2 mL water against 10 mL PBS, 24 h)	cytotoxic effect on SKBR-3 versus MCF-7 breast cancer cells (SKBR-3 cells [3]; 48 h, Figure S4, HER2 high-expression SKBR-3 vs MCF-7)	IC50 of the PDC relative to free DOX (SKBR-3 cells [3]; SKBR-3 cells, 48 h)	IC50 (SKBR-3 cells [3]; SKBR-3 cells) [nM]	viability of SKBR-3 cells (SKBR-3 cells [3]; equivalent concentration 1 μM, 48 h, CCK8) [%]	uptake of the PDC in SKBR-3 versus MCF-7 cells (SKBR-3 cells [4]; CLSM, Figure S3, HER2 negative MCF-7)	cellular uptake relative to free DOX (SKBR-3 cells [4]; HER2-positive SKBR-3 cells) [times]	reduction of tumor growth on day 14 post treatment [5] [%]	body weight change versus PBS group (BALB/c nude mice)	H&E histology of major organs (BALB/c nude mice)
COc1cccc2c1C(=O)c1c(O)c3c(c(O)c1C2=O)C[C@@](O)(C(CO)=NNC(=O)CCCCCN1C(=O)CC(SC[C@H](NC(=O)CCOCCOCCOCCOCCNC(=O)[C@H](CCCCNC(=O)CCOCCOCCOCCOCCNC(=O)[C@H](CCCCN)NC(=O)[C@H](CC(C)C)NC(=O)[C@H](CCCNC(=N)N)NC(=O)[C@H](CC(C)C)NC(=O)[C@H](CCC(=O)O)NC(=O)[C@H](Cc2c[nH]c4ccccc24)NC(=O)[C@H](CC(N)=O)NC(=O)[C@@H](N)CCCNC(=N)N)NC(=O)CCOCCOCCOCCOCCNC(=O)[C@H](CCCCN)NC(=O)[C@H](CC(C)C)NC(=O)[C@H](CCCNC(=N)N)NC(=O)[C@H](CC(C)C)NC(=O)[C@H](CCC(=O)O)NC(=O)[C@H](Cc2c[nH]c4ccccc24)NC(=O)[C@H](CC(N)=O)NC(=O)[C@@H](N)CCCNC(=N)N)C(=O)O)C1=O)C[C@@H]3O[C@H]1C[C@H](N)[C@H](O)[C@H](C)O1 (stereo partly shown) [PDC]	~1440	~15	78	~90	around 20%	about 35%	significantly more cytotoxic in the HER2 high-expression cell lines	three times less	143	26.3	higher uptake rate	2.9	51.1 ± 3.1	no noteworthy distinction in body weight	no morphological aberrations in organ tissues
COc1cccc2c1C(=O)c1c(O)c3c(c(O)c1C2=O)C[C@@](O)(C(=O)CO)C[C@@H]3O[C@H]1C[C@H](N)[C@H](O)[C@H](C)O1.Cl [free DOX, doxorubicin hydrochloride, reference compound]	–	–	–	–	–	–	–	–	410	–	–	–	23.13 ± 2.4	significantly decreased	clear cardiotoxicities
